Measurements published in article PMC8037142, “Design, Synthesis, Molecular Modeling and Antitumor Evaluation of Novel Indolyl-Pyrimidine Derivatives with EGFR Inhibitory Activity” (Molecules, 2021).
Read-outs that look alike come from different tables or passages of the source.

Tests used:
[1] = system: MCF-7 breast cancer cell line; assay: Resazurin Cell Growth Inhibition Assay, MCF-7; format: cell-based; conditions: Homo sapiens, MCF7; MCF-7, 48 h, mean ± SD of three experiments; read-out: Cytotoxic Activity IC50
Experimental: (§1) Compounds 1–4 were assessed for their in vitro cytotoxic activity against three human cell lines i.e., breast (MCF-7), liver (HepG2), colon (HCT-116) cancer cell lines as well as in lung fibroblast (WI38) normal cell line using the Resazurin Cell Growth Inhibition Assay. Both erlotinib and 5-Fluorouracil (5-FU) were used as reference drugs. Concentrations of the tested compounds that give about 50% inhibition of cell viability (IC50, mean of triplicate) in µM were obtained. […] However, if replaced by a hydrazone substituent, a more prominent efficacy toward the three cancer cell lines was observed. […] The most promising in vitro antiproliferative activity was obtained when the hydrazone is bearing electron-withdrawal groups i.e., 4-chlorobenzylidene moiety (compound 3f), 3,4-dichloro benzylidene moiety (compound 3g) and 4-fluorobenzylidene moiety (compound 3h) compared to the standard treatment (Table 1, Figure 5). The inhibitory activity of compounds was reduced when the hydrazone group is bearing electron donating groups i.e., 4-methyl group (compound 3b), 2-methoxy group (compound 3c), 4-hydroxy (compound 3d) and 4-dimethylamino group (compound 3e). The trend of antiproliferative activity of compounds […] against all tested cell lines has the following descending order: (3g > 3h >3f >3a >3b > 3c > 3d > 3e). […]. […] This is mainly because this compound has the highest lipophilicity as well as less electron density as it has 2-Cl atoms (more electronegativity) on the indolyl pyrimidine-thiazolidinone.
(§2) In vitro cytotoxicity was measured according to the Resazurin Cell Growth Inhibition Assay Alamar Blue or Resazurin (Promega, Mannheim, Germany) reduction assay was used to assess the cytotoxicity of the studied samples. The assay tests cellular viability and mitochondrial function. Briefly, adherent cells were grown in tissue culture flasks, and then harvested by treating the flasks with 0.025% trypsin and 0.25 mM EDTA for 5 min. Once detached, cells were washed, counted, and an aliquot (5 × 10^3 cells) were placed in each well of a 96-well cell culture plate in a total volume of […]. Cells were allowed to attach overnight and then treated with samples. […]. Each assay was performed as triplicates. […] […]. The viability was compared based on a comparison with untreated cells. IC50 (on cancer cells) were the concentration of sample required to inhibit 50% of the cell proliferation and were calculated from a calibration curve by a linear regression using Microsoft Excel.

[2] = system: HCT-116 colon cancer cell line; assay: Resazurin Cell Growth Inhibition Assay, HCT-116; format: cell-based, human; conditions: HCT-116, 48 h, mean ± SD of three experiments, read-out: Cytotoxic Activity IC50
Experimental: as §1, §2

[3] = system: HepG2 liver cancer cell line; assay: Resazurin Cell Growth Inhibition Assay, HepG2; format: cell-based, human; conditions: HepG2, 48 h, mean ± SD of three experiments, read-out: Cytotoxic Activity IC50
Experimental: as §1, §2

[4] = Resazurin Cell Growth Inhibition Assay, WI38 normal cells; format: cell-based; conditions: human, WI38 normal lung fibroblast cells, WI-38 normal cells, mean ± SD of three experiments, read-out: Cytotoxic Activity IC50
Experimental: as §1, §2

[5] = system: MCF-7, HepG2 and HCT-116 cancer cell lines; assay: Resazurin assay, range over the three cancer cell lines; format: cell-based; conditions: Homo sapiens; range over MCF-7, HepG2 and HCT-116; read-out: IC50 range against the cancer cell lines
Experimental: Compounds 1–4 were assessed for their in vitro cytotoxic activity against three human cell lines i.e., breast (MCF-7), liver (HepG2), colon (HCT-116) cancer cell lines as well as in lung fibroblast (WI38) normal cell line using the Resazurin Cell Growth Inhibition Assay. Both erlotinib and 5-Fluorouracil (5-FU) were used as reference drugs. Concentrations of the tested compounds that give about 50% inhibition of cell viability (IC50, mean of triplicate) in µM were obtained. […] However, if replaced by a hydrazone substituent, a more prominent efficacy toward the three cancer cell lines was observed. […] The most promising in vitro antiproliferative activity was obtained when the hydrazone is bearing electron-withdrawal groups i.e., 4-chlorobenzylidene moiety (compound 3f), 3,4-dichloro benzylidene moiety (compound 3g) and 4-fluorobenzylidene moiety (compound 3h) compared to the standard treatment (Table 1, Figure 5). […]
In vitro cytotoxicity was measured according to the Resazurin Cell Growth Inhibition Assay Alamar Blue or Resazurin (Promega, Mannheim, Germany) reduction assay was used to assess the cytotoxicity of the studied samples. […] Once detached, cells were washed, counted, and an aliquot (5 × 10^3 cells) were placed in each well of a 96-well cell culture plate in a total volume of 100 mL. […]

[6] = system: Ehrlich ascites carcinoma (EAC); assay: In vivo antitumor assay in EAC tumor bearing mice; conditions: 0.5 mg/mouse for nine days; for Tumor Volume: ascitic fluid; for MST (mean survival time): mean of two experiments; for Viable Tumor Cell Count: trypan blue
Experimental: The antitumor activity of these compounds was assessed by the change in tumor volume, viable cell count, mean survival time (MST) and % increase in lifespan (% ILS) of the EAC tumor bearing mice and 5-FU (standard treatment). The mean survival time (MST) and % increase in lifespan (% ILS) of EAC tumor bearing mice, as well as the influence of these compounds on viable tumor cells and the tumor volume, are shown in Table 2. The hematological profile of these mice was also assessed in comparison with the standard treatment with 5-FU, and no obvious effect on RBCs or WBCs was observed. […] MST = (day of first death + day of last death)/2 %ILS = [(MST of treated group/MST of control group) − 1] × 100 […]
In vivo antitumor evaluation was carried out as previously reported (see Supplementary Materials).
2. Biological Evaluation Details: a) In vivo antitumor assay: Materials . Adult Swiss male mice (weighing 20 -25 g) were obtained from the Department of Pharmacology, Faculty of Pharmacy, Mansoura University, Egypt.
They were kept in microlon boxes at temperature 25 ± 2 °C with a regular 12 hrs light/dark cycle. In addition, food and water were available. EAC cells (procured from NCI, Cairo, Egypt) were harvested and prepared, then their total number was counted.
Procedure. 7 Groups of mice ( n = 4) were used.
Group 1: Negative control (no EAC cells) - received normal saline.
Group 2: Positive control (EAC cells) - received normal saline.
Group 3: EAC cells - treated with compound 3g (0.5 mg/mouse).
Group 4: EAC cells - treated with compound 4f (0.5 mg/mouse).
Group 5: EAC cells - treated with compound 4g (0.5 mg/mouse).
Group 6: EAC cells - treated with compound 4h (0.5 mg/mouse).
Group 7: EAC cells - treated with 5-fluorouracil (0.5 mg/mouse).
2 x 10^6 EAC cells were injected intraperitoneally in each mouse (groups 2-7). After […]
for nine days, then blood samples were withdrawn for assessment of blood count.
Determination of tumor volume
The ascetic fluid was gathered from the peritoneal cavity and its volume was determined. It was then centrifuged, and the packed tumor cell volume was measured.
Determination of viable tumor cell count
100 μL Sample of EAC cells (from three mice per group) was utilized and diluted twenty times with saline. Cells were stained with trypan blue, viable cells are not stained, while the dead ones are stained. The number of viable cells was calculated.

EGFR kinase = EGFR kinase (Homo sapiens, UniProt P00533); assay: In vitro EGFR inhibitory assay (EnzyChrom Kinase Assay Kit EKIN-400); conditions: for inhibition at 10 µM: read-out: % Inhibition of EGFR
Chain of EGFR kinase (P00533 25-1210): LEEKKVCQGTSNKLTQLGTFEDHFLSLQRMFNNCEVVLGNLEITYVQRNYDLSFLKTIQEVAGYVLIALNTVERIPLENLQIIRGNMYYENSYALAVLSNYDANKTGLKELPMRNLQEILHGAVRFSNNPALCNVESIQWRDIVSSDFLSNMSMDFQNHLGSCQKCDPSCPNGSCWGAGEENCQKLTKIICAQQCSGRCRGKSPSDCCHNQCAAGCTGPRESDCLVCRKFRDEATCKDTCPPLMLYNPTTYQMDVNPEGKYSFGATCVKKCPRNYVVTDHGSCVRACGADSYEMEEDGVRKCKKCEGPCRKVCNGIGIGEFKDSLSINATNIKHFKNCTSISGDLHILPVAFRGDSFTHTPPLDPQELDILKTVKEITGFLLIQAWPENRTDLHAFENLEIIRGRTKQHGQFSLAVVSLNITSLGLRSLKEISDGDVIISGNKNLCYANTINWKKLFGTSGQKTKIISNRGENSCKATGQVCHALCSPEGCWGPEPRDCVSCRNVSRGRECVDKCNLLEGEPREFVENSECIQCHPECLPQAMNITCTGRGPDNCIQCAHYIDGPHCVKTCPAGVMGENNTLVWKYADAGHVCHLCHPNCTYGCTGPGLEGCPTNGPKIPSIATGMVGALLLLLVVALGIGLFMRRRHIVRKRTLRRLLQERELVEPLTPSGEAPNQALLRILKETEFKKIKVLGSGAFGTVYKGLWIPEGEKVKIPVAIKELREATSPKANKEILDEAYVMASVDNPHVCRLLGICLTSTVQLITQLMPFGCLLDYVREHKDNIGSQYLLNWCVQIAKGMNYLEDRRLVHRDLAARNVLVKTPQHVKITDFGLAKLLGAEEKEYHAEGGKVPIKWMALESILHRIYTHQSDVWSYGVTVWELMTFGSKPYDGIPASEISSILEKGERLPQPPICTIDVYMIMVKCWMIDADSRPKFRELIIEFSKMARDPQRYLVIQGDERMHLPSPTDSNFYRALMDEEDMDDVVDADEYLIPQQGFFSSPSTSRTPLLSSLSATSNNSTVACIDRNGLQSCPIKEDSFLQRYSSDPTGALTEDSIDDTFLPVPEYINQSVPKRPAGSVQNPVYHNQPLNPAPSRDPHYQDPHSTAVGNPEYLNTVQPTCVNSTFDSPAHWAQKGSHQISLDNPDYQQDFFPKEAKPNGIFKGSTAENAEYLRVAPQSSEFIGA
Experimental: A first-generation EGFR inhibitor, erlotinib, was used as standard treatment. […] IC50 for these compounds was determined. […] In addition, 20 µL reaction mixture containing the EGFR kinase, ATP, and substrate in the provided assay buffer. Set up a blank control that contains ATP and substrate but no enzyme. Incubate at desired temperature for 30 min. Prepare 900 µL 10µM (adenosine diphosphate) ADP premix by mixing 3 µL of 3 mM standard and 897 µL distilled water. Transfer 20 µL standards into separate wells of the plate. Prepare enough working reagent for each well. Add 40 µL working reagent to each assay well. Tap plate to mix. Incubate at room temperature for 10 min. Read fluorescence intensity at λexc = 530nm and λem = 590 nm, and then calculate kinase activity.

Compound CCOC(=O)C1=C(C)NC(=S)NC1c1c[nH]c2ccccc12 (centres unmarked) [Compound 1, Ethyl 4-(1H-indol-3-yl)-6-methyl-2-thioxo-1,2,3,4-tetrahydropyrimidine-5-Carboxylate] has an IC50 [1] of 26.8 ± 2.2 µM, an IC50 ([2]; Homo sapiens) of 27.2 ± 1.11 µM and an IC50 ([3]; Homo sapiens) of 28.8 ± 2.25 µM. For the same compound, the IC50 at 48 h [4] was 30 ± 1.2 µM, the IC50 [5] was 26.8 to 28.2 µM and the melting point was 245 to 247 °C.

Work on CC1=C(C(=O)NN)C(c2c[nH]c3ccccc23)NC(=S)N1 (centres unmarked) [Compound 2, 4-(1H-indol-3-yl)-6-methyl-2-thioxo-1,2,3,4-tetrahydropyrimidine-5-carbohydrazide] yielded an IC50 [1] of 21.6 ± 1.8 µM, an IC50 ([2]; Homo sapiens) of 22.2 ± 1.5 µM and an IC50 ([3]; Homo sapiens) of 25.5 ± 2.17 µM. The IC50 at 48 h [4] was 40.5 ± 2.25 µM, the IC50 [5] was 21.6 to 25.5 µM and the melting point was 208 to 210 °C.

In the case of CC1=C(C(=O)NN=Cc2ccc(Cl)c(Cl)c2)C(c2c[nH]c3ccccc23)NC(=S)N1 (centres unmarked) [Compound 3g, 4-(1H-indol-3-yl)-6-methyl-2-thioxo-1,2,3,4-tetrahydropyrimidine-5-carboxylic acid (3,4-dichloro-benzylidene)-hydrazide], the IC50 [1] is reported as 9 ± 2.4 µM, the IC50 ([2]; Homo sapiens) is reported as 8.5 ± 2.3 µM and the IC50 ([3]; Homo sapiens) is reported as 10 ± 2.46 µM. The IC50 at 48 h [4] was 30 ± 3.72 µM, the “Tumor Volume” value [6] was 2.97 mL and the “MST (mean survival time)” value [6] was 30 days. The “Viable Tumor Cell Count” value [6] was 48.00 10^6/mL, the IC50 (EGFR kinase) was 0.5 ± 0.04 µM and the inhibition at 10 µM (EGFR kinase) was 53%.

Compound CC1=C(C(=O)NN2C(=O)CSC2c2ccccc2O)C(c2c[nH]c3ccccc23)NC(=S)N1 (centres unmarked) [Compound 4d, N-(2-(2-hydroxyphenyl)-4-oxothiazolidin-3-yl)-4-(1H-indol-3-yl)-6-methyl-2-thioxo-1,2,3,4-tetrahydropyrimidine-5-carboxamide] has an IC50 [1] of 12.6 ± 1.7 µM, an IC50 ([2]; Homo sapiens) of 13.6 ± 1.09 µM and an IC50 ([3]; Homo sapiens) of 18.7 ± 1.2 µM. It also gave an IC50 at 48 h [4] of 29.9 ± 3.63 µM and a melting point of 180 to 182 °C.

Compound CC1=C(C(=O)NN2C(=O)CSC2c2ccc(N(C)C)cc2)C(c2c[nH]c3ccccc23)NC(=S)N1 (centres unmarked) [Compound 4e, N-(2-(4-(dimethylamino)phenyl)-4-oxothiazolidin-3-yl)-4-(1H-indol-3-yl)-6-methyl-2-thioxo-1,2,3,4-tetrahydropyrimidine-5-carboxamide] has an IC50 [1] of 14.2 ± 0.74 µM, an IC50 ([2]; Homo sapiens) of 13.7 ± 0.55 µM and an IC50 ([3]; Homo sapiens) of 18.6 ± 0.94 µM. The IC50 at 48 h [4] was 20.2 ± 5.52 µM and the melting point was 170 to 172 °C.

For CC1=C(C(=O)NN2C(=O)CSC2c2ccc(Cl)cc2)C(c2c[nH]c3ccccc23)NC(=S)N1 (centres unmarked) [Compound 4f, N-(2-(4-chlorophenyl)-4-oxothiazolidin-3-yl)-4-(1H-indol-3-yl)-6-methyl-2-thioxo-1,2,3,4-tetrahydropyrimidine-5-carboxamide], the IC50 [1] was 8.01 ± 1.83 µM, the IC50 ([2]; Homo sapiens) was 8.02 ± 0.26 µM and the IC50 ([3]; Homo sapiens) was 8.9 ± 1.73 µM. The IC50 at 48 h [4] was 19.3 ± 5.87 µM, the “Tumor Volume” value [6] was 2.50 mL and the “MST (mean survival time)” value [6] was 37 days. For the same compound, the “Viable Tumor Cell Count” value [6] was 40.70 10^6/mL, the IC50 (EGFR kinase) was 0.38 ± 0.02 µM and the inhibition at 10 µM (EGFR kinase) was 71%.

In the case of CC1=C(C(=O)NN2C(=O)CSC2c2ccc(Cl)c(Cl)c2)C(c2c[nH]c3ccccc23)NC(=S)N1 (centres unmarked) [Compound 4g, N-(2-(3,4-dichlorophenyl)-4-oxothiazolidin-3-yl)-4-(1H-indol-3-yl)-6-methyl-2-thioxo-1,2,3,4-tetrahydropyrimidine-5-carboxamide], the IC50 [1] is reported as 5.1 ± 1.14 µM, the IC50 [2] is reported as 5.02 ± 1.19 µM and the IC50 ([2]; Homo sapiens) is reported as 6.6 µM. The IC50 [3] was 6.6 ± 1.4 µM, the IC50 ([3]; Homo sapiens) was 5.02 µM and the IC50 at 48 h [4] was 16.3 ± 3.21 µM. The “Tumor Volume” value [6] was 0.89 mL, the “MST (mean survival time)” value [6] was 46 days and the “Viable Tumor Cell Count” value [6] was 21.70 10^6/mL. It also gave an inhibition at 10 µM (EGFR kinase) of 79%.

Work on CC1=C(C(=O)NN2C(=O)CSC2c2ccc(F)cc2)C(c2c[nH]c3ccccc23)NC(=S)N1 (centres unmarked) [Compound 4h, N-(2-(4-fluorophenyl)-4-oxothiazolidin-3-yl)-4-(1H-indol-3-yl)-6-methyl-2-thioxo-1,2,3,4-tetrahydropyrimidine-5-carboxamide] yielded an IC50 [1] of 6.6 ± 1.28 µM, an IC50 ([2]; Homo sapiens) of 7.02 ± 0.46 µM and an IC50 ([3]; Homo sapiens) of 7.5 ± 1.29 µM. The IC50 at 48 h [4] was 18.1 ± 2.06 µM, the “Tumor Volume” value [6] was 1.18 mL and the “MST (mean survival time)” value [6] was 40 days. The “Viable Tumor Cell Count” value [6] was 28.50 10^6/mL, the IC50 (EGFR kinase) was 0.39 ± 0.02 µM and the inhibition at 10 µM (EGFR kinase) was 70%.
